Experimental data from patent US8729264B2, “Agent for prevention and/or treatment of skin diseases” (Kyowa Hakko Kirin Co., Ltd., priority 2007, dated 2014).

System: dinitrofluorobenzene-induced ear edema
Assay: Suppressive action on dinitrofluorobenzene-induced ear edema reaction in mouse
Format: in vivo, BALB/c mice (printed BALE/c)
Conditions: topical, test compound 1% (w/v) in acetone applied to front and back of auricle 1 hr before and 3 hr after induction, auricle thickness 24 hr after induction, female mice, read-out: ear edema suppressive rate (%)
Description: 5-Week to 6-week old BALE/c mice (female, supplied by CHARLES RIVER LABORATORIES JAPAN, INC) were purchased and, after quarantine and habituation, those showing satisfactory body weight increase and free of abnormal appearance were used to start the test from 7 weeks of age. The animals were housed and bred in plastic cages (6 mice per cage) in a breeding chamber set at room temperature 19-25° C., humidity 30-70%, 12 hr illumination per day (7 a.m.-7 p.m.), with free access to a commercially available solid feed and water.
One day before the test, the abdomen was shaved, and a solution of dinitrofluorobenzene (manufactured by Nacalai Tesque) in acetone (manufactured by Wako Pure Chemical Industries, Ltd.) {concentration 0.5% [weight (w)/volume (v) %]} was applied to the shaved part of BALE/c mice by 100 μL for sensitization. On day 5 after sensitization, a dinitrofluorobenzene-acetone solution [concentration 0.2% (w/v %)] was applied to the front and the back of the auricle by 10 μL each (total 20 μL) to induce reaction. A test compound dissolved in acetone to the concentration of 1% (w/v %) was applied to the front and the back of the auricle 1 hr before and 3 hr after the induction of reaction each by 10 μL or 40 μL (total 20 μL or 80 μL). After the application, the applied part was air-dried by a dryer.
A group administered with the test compound by coating was taken as a test compound administration group, and a group administered with acetone (solvent) by coating instead of the test compound was taken as a solvent administration group. In addition, a group free of sensitization and induction of reaction and administered with acetone by coating instead of the test compound was taken as a normal group. The thickness of the auricle was measured immediately before induction of reaction and 24 hr after the induction with a dial thickness gauge (manufactured by OZAKI MFG. CO., LTD., G-1A), and the difference between them was taken as ear edema. The ear edema suppressive rate (%) was calculated according to the following formula.

For `CS(=O)(=O)NC(=O)c1cnn2c(NCc3ccccc3)c(C(=O)N3CCC(c4ccccc4)CC3)cnc12` [a-1, N-[7-Benzylamino-6-(4-phenylpiperidine-1-carbonyl)pyrazolo[1,5-a]pyrimidine-3-carbonyl]methanesulfonamide], the inhibition in vivo at 1 % was 20%.

Molecule `CCS(=O)(=O)NC(=O)c1cnn2c(Nc3ccc(F)cc3C)c(C(=O)N3CCC(c4ccccc4)CC3)cnc12` [a-57, N-[7-(4-Fluoro-2-methylphenylamino)-6-(4-phenylpiperidine-1-carbonyl)pyrazolo[1,5-a]pyrimidine-3-carbonyl]ethanesulfonamide] has an inhibition in vivo at 1 % of 35%.

With `CCS(=O)(=O)NC(=O)c1cnn2c(Nc3cc(C)ccc3F)c(C(=O)N3CCC(c4ccccc4)CC3)cnc12` [a-59, N-[7-(2-Fluoro-5-methylphenylamino)-6-(4-phenylpiperidine-1-carbonyl)pyrazolo[1,5-a]pyrimidine-3-carbonyl]ethanesulfonamide] the inhibition in vivo at 1 % was 6%.

`CCS(=O)(=O)NC(=O)c1cnn2c(Nc3cc(C)ccc3F)c(C(=O)N3CCC(c4ccc(F)cc4)CC3)cnc12` [a-81, N-{7-(2-Fluoro-5-methylphenylamino)-6-[4-(4-fluorophenyl)piperidine-1-carbonyl]pyrazolo[1,5-a]pyrimidine-3-carbonyl}ethanesulfonamide] gave an inhibition in vivo at 1 % of 25%.

For `CCS(=O)(=O)NC(=O)c1cnn2c(Nc3ccc(F)cc3C)c(C(=O)N3CCC(c4ccc(F)cc4)CC3)cnc12` [a-84, N-{7-(4-Fluoro-2-methylphenylamino)-6-[4-(4-fluorophenyl)piperidine-1-carbonyl]pyrazolo[1,5-a]pyrimidine-3-carbonyl}ethanesulfonamide], the inhibition in vivo at 1 % was 25%.

`CS(=O)(=O)NC(=O)c1cnn2c(NCc3ccccc3)c(C(=O)N3CCC(F)(c4ccccc4)CC3)cnc12` [a-96, N-[7-Benzylamino-6-(4-fluoro-4-phenylpiperidine-1-carbonyl)pyrazolo[1,5-a]pyrimidine-3-carbonyl]methanesulfonamide] gave an inhibition in vivo at 1 % of 10%.

`O=C(NS(=O)(=O)C1CC1)c1cnn2c(NCc3ccccc3)c(C(=O)N3CCC4(CC3)COc3ccccc34)cnc12` [a-126, N-[7-Benzylamino-6-(2H-spiro[benzofuran-3,4′-piperidine]-1′-ylcarbonyl)pyrazolo[1,5-a]pyrimidine-3-carbonyl]cyclopropanesulfonamide] was tested, and the inhibition in vivo at 1 % was 10%.

`CCS(=O)(=O)NC(=O)c1cnn2c(Nc3cc(C)ccc3C)c(C(=O)N3CCC4(CC3)COc3cc(F)ccc34)cnc12` [a-137, N-[7-(2,5-Dimethylphenylamino)-6-(6-fluoro-2H-spiro[benzofuran-3,4′-piperidine]-1′-ylcarbonyl)pyrazolo[1,5-a]pyrimidine-3-carbonyl]ethanesulfonamide] was tested, and the inhibition in vivo at 1 % was 5%.
